Where a name gives a salt, the structure may show the parent alone.
test system: rat liver microsomes (RLM); assay: Drug interaction screening of 48 drugs on dabrafenib metabolism in RLM; format: in vitro ADME; details: 100 µM
Protocol: The 200 µL incubation system contained 0.1 M Tris-HCl (pH = 7.6), 0.5 mg/mL RLM or HLM, 1 mM NADPH, and dabrafenib. After pre-incubation (37 °C, 5 min), reactions were initiated by adding 1 mM NADPH and terminated after 40 min with 300 µL ice-cold acetonitrile. Carbamazepine (100 ng/mL) was added as the IS. Samples were vortex-mixed (2 min), centrifuged (17,000 × g, 10 min, 4 °C), and supernatants analyzed by UPLC-MS/MS. Hydroxy-dabrafenib concentrations were quantified via UPLC-MS/MS. Reaction velocity (V) was calculated as hydroxy-dabrafenib formation rate (pmoL/min/µg protein).
For drug interaction screening, inhibitors (100 µM final concentration) were screened in the standard incubation system.
The concentrations of dabrafenib and hydroxy-dabrafenib were quantified by UPLC-MS/MS. Chromatographic separation was performed on a Waters Acquity UPLC BEH C18 column (2.1 mm × 50 mm, 1.7 µm particle size) maintained at 40 °C. […] Total run time was 2 min. Detection employed a Waters Xevo TQS triple quadrupole mass spectrometer (Milford, MA, United States) operated in positive-ion multiple reaction monitoring mode.

Row | Molecule | Relative activity (% of control)
1 | Troagliptin succinate | 117.88% ± 0.02
2 | CNCC[C@H](Oc1cccc2ccccc12)c1cccs1 [Duloxetine] | 40.82% ± 0.01

same assay, conditions: RLM; inhibitor 100 µM; dabrafenib at RLM Km concentration

Row | Molecule | inhibition of dabrafenib metabolism [%]
3 | Cc1c(OCC(F)(F)F)ccnc1C[S+]([O-])c1nc2ccccc2[nH]1 (centres unmarked) [Lansoprazole] | > 70
4 | Cc1ccc(Sc2ccccc2N2CCNCC2)c(C)c1 [Vortioxetine] | > 70
5 | CNCCC(Oc1ccc(C(F)(F)F)cc1)c1ccccc1 (centres unmarked) [Fluoxetine] | > 70
6 | CCCCc1oc2ccc(NS(C)(=O)=O)cc2c1C(=O)c1ccc(OCCCN(CCCC)CCCC)cc1 [Dronedarone hydrochloride] | > 70
7 | O=c1ccc2ccc(OCCCCN3CCN(c4cccc5sccc45)CC3)cc2[nH]1 [Brexpiprazole] | > 70

same assay, conditions: RLM; inhibitor 100 µM; dabrafenib at RLM Km concentration; hydroxy-dabrafenib formation

Row | Molecule | Relative activity (% of control)
8 | CC(NC(C)(C)C)C(=O)c1cccc(Cl)c1 (centres unmarked) [Bupropion] | 30.23% ± 0.06
9 | O=c1n(CCCN2CCN(c3cccc(Cl)c3)CC2)nc2ccccn12 [Trazodone] | 49.14% ± 0.01
10 | CN(C)C(=N)N=C(N)N [Metformin hydrochloride] | 109.07% ± 0.01
11 | Cc1c(OCC(F)(F)F)ccnc1C[S+]([O-])c1nc2ccccc2[nH]1 (centres unmarked) [Lansoprazole] | 27.68% ± 0.01
12 | CN1CCN2c3ncccc3Cc3ccccc3C2C1 (centres unmarked) [Mirtazapine] | 50.53% ±0.001
13 | Cc1ccc(Sc2ccccc2N2CCNCC2)c(C)c1 [Vortioxetine] | 11.14% ±0.001
14 | CN1[C@@H]2CC[C@H]1C[C@@H](OC(=O)c1c[nH]c3ccccc13)C2 [Tropisetron] | 84.28% ± 0.07
15 | Cc1nc2n(c(=O)c1CCN1CCC(c3noc4cc(F)ccc34)CC1)CCCC2O (centres unmarked) [Paliperidone] | 101.95% ± 0.03
16 | CN(C)CCC=C1c2ccccc2CCc2ccccc21 [Amitriptyline] | 38.88% ± 0.04
17 | CC(C)[C@H]1CC[C@H](C(=O)N[C@H](Cc2ccccc2)C(=O)O)CC1 [Nateglinide] | 108.55% ± 0.06
18 | CN(C)CCOC(c1ccccc1)c1ccccc1 [Diphenhydramine hydrochloride] | 90.45% ± 0.11
19 | CC(=O)Nc1ccc(O)cc1 [Acetaminophen] | 90.08% ± 0.04
20 | CN1CCOC(c2ccccc2)c2ccccc2C1 (centres unmarked) [Nefopam hydrochloride] | 52.87% ± 0.15
21 | O=C(O)Cc1ccccc1Nc1c(Cl)cccc1Cl [Diclofenac sodium] | 69.82% ± 0.04
22 | COCCc1ccc(OCC(O)CNC(C)C)cc1 (centres unmarked) [Metoprolol Tartrate] | 59.44% ± 0.08
23 | CN1C(C(=O)Nc2ccccn2)=C(O)c2sc(Cl)cc2S1(=O)=O [Lornoxicam] | 65.67% ± 0.04
24 | COc1ccc2cccc(CCNC(C)=O)c2c1 [Agomelatine] | 36.20% ± 0.08
25 | Cc1ccc(-c2cc(C(F)(F)F)nn2-c2ccc(S(N)(=O)=O)cc2)cc1 [Celecoxib] | 33.72% ± 0.13
26 | Cc1cnc(NC(=O)C2=C(O)c3ccccc3S(=O)(=O)N2C)s1 [Meloxicam sodium] | 61.62% ± 0.06
27 | CN(C)CCCN1c2ccccc2CCc2ccc(Cl)cc21 [Clomipramine] | 54.39% ± 0.08
28 | CN/C(=N/CCSCc1nc[nH]c1C)NC#N [Cimetidine] | 84.61% ± 0.03

Row | Molecule | Relative activity (% of control)
29 | CNCCC(Oc1ccc(C(F)(F)F)cc1)c1ccccc1 (centres unmarked) [Fluoxetine] | 18.63% ±0.04
30 | COc1ccc2c(c1)[C@]13CCCC[C@@H]1[C@H](C2)N(C)CC3 [Dextromethorphan hydrobromide] | 79.28% ± 0.03
31 | CCC1=C(C)CN(C(=O)NCCc2ccc(S(=O)(=O)NC(=O)N[C@H]3CC[C@H](C)CC3)cc2)C1=O [Glimepiride] | 100.17% ± 0.01
32 | C[C@@H]1C[C@H]2[C@@H]3CCC4=CC(=O)C=C[C@]4(C)[C@@]3(F)[C@@H](O)C[C@]2(C)[C@@]1(O)C(=O)CO [Dexamethasone] | 59.84% ± 0.07
33 | C[C@]12CCC(=O)C=C1CC[C@@H]1[C@@H]2[C@@H](O)C[C@@]2(C)[C@H]1CC[C@]2(O)C(=O)CO [Hydrocortisone] | 70.48% ± 0.08
34 | CN[C@H]1CC[C@@H](c2ccc(Cl)c(Cl)c2)c2ccccc21 [Sertraline] | 29.92% ± 0.05
35 | N#C[C@@H]1C[C@@H]2C[C@@H]2N1C(=O)[C@@H](N)C12CC3CC(CC(O)(C3)C1)C2 [Saxagliptin hydrochloride] | 114.45% ± 0.02
36 | CN(C)CCCC1(c2ccc(F)cc2)OCc2cc(C#N)ccc21 (centres unmarked) [Citalopram] | 59.29% ± 0.07
37 | CCCCc1oc2ccc(NS(C)(=O)=O)cc2c1C(=O)c1ccc(OCCCN(CCCC)CCCC)cc1 [Dronedarone hydrochloride] | 20.07% ± 0.02
38 | C=C[C@H]1C[N@@]2CC[C@H]1C[C@@H]2[C@@H](O)c1ccnc2ccc(OC)cc12 [Quinidine] | 60.50% ± 0.14
39 | COc1ccc2[nH]c([S+]([O-])Cc3ncc(C)c(OC)c3C)nc2c1 (centres unmarked) [Omeprazole] | 46.24% ±0.04
40 | CN(CCOc1ccc(CC2SC(=O)NC2=O)cc1)c1ccccn1 (centres unmarked) [Rosiglitazone maleate] | 64.26% ± 0.004
41 | O=c1ccc2ccc(OCCCCN3CCN(c4cccc5sccc45)CC3)cc2[nH]1 [Brexpiprazole] | 29.48% ± 0.05
42 | COc1ccc2c(c1)c(CC(=O)O)c(C)n2C(=O)c1ccc(Cl)cc1 [Indomethacin] | 60.51% ± 0.004
43 | CC(C(=O)O)c1ccc(CC2CCCC2=O)cc1 (centres unmarked) [Loxoprofen] | 57.60% ± 0.04
44 | COc1ccc(C(CN(C)C)C2(O)CCCCC2)cc1 (centres unmarked) [Venlafaxine] | 54.22% ± 0.004
45 | Cc1cnc(C(=O)NCCc2ccc(S(=O)(=O)NC(=O)NC3CCCCC3)cc2)cn1 [Glipizide] | 106.96% ± 0.06
46 | COc1ccc(Cl)cc1C(=O)NCCc1ccc(S(=O)(=O)NC(=O)NC2CCCCC2)cc1 [Glybenzcyclamide] | 78.13% ± 0.03
47 | CC(C(=O)O)c1ccc(-c2ccccc2)c(F)c1 (centres unmarked) [Flurbiprofen] | 59.91% ± 0.03
48 | CCC(=O)NS(=O)(=O)c1ccc(-c2c(-c3ccccc3)noc2C)cc1 [Parecoxib] | 72.34% ± 0.11

test system: not given; assay: not given; design: method as in Puszkiel et al., 2019; Balakirouchenane et al., 2021; details: ref Puszkiel et al., 2019; Balakirouchenane et al., 2021; cited from earlier work

Row | Molecule | increase of dabrafenib Cmax on ketoconazole coadministration [%] | increase of dabrafenib area under curve (AUC) on ketoconazole coadministration [%]
49 | CC(=O)N1CCN(c2ccc(OCC3COC(Cn4ccnc4)(c4ccc(Cl)cc4Cl)O3)cc2)CC1 (centres unmarked) [ketoconazole] | 33 | 71

From publication PMC12460146, “Impact of metabolic enzyme activity variability on dabrafenib disposition” (Frontiers in Pharmacology, 2025)
